Here are results for 2 compounds from patent US20210388005A1, “FLUORESCENT COMPOUND AND PREPARATION METHOD AND USE FOR THE SAME” (NEUBORON MEDTECH LTD., priority 2019, published 2021).

The nature of series [1]: fluorescence spectrum at room temperature. Format: physicochemical. The conditions noted are these: excited at a wavelength. On the procedure: (§1) To a single-necked flask is added 300 ml of absolute ethyl alcohol, 6.47 g of 3-bromomethyl phenylboronate indole quaternary ammonium salt, 2-chloro-3-hydroxymethylene cyclohexene carboxaldehyde, and 0.15 g of sodium acetate. The mixture is reacted at 70° C. for 1 h, and spin dried to remove the solvent. The resulting residue is separated by column chromatography, to obtain fluorescent compounds I-1 and I-2. The fluorescent compound I-1 has a maximum fluorescence emission peak at 808 nm when excited at a wavelength of […], and has a near infrared absorption peak in ethanol solution at 785 nm. The fluorescent compound I-2 has a maximum fluorescence emission peak at 811 nm when excited at a wavelength of […], and has a near infrared absorption peak in ethanol solution at 788 nm.

A short description of series [2]: near-infrared absorption spectrum in ethanol solution. Format: physicochemical. As to the method: FIG. 3 is a near-infrared absorption spectrum of compound I-1 and compound I-2 in Example 4 in ethanol solution.
as §1

With `CC1(C)C(/C=C/C2=C(Cl)C(=C/C=C3/N(Cc4cccc(B(O)O)c4)c4ccccc4C3(C)C)/CCC2)=[N+](Cc2cccc(B(O)O)c2)c2ccccc21` [Compound I-1], the “maximum fluorescence emission peak” value in series [1] was determined as 808 nm. Moreover, the “near infrared absorption peak” value in series [2] was found to be 785 nm.
For the compound `CC1(C)C(/C=C/C2=C(Cl)C(=C/C=C3/N(Cc4ccccc4)c4ccccc4C3(C)C)/CCC2)=[N+](Cc2cccc(B(O)O)c2)c2ccccc21` [Compound I-2], the “maximum fluorescence emission peak” value in series [1] was 811 nm. Besides, the “near infrared absorption peak” value in series [2] is given as 788 nm.
